From PubChem BioAssay (NCI)
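Each compound was tested at five concentrations against cells in 96-well plates for 48 hours. TGI: concentration producing complete growth inhibition.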

Assays:
Assay in all cases: NCI tumour cell line growth inhibition, 48 h
[1] = system: A498 renal
[2] = system: OVCAR-5 ovarian
[3] = system: SF-295 CNS
[4] = system: MALME-3M melanoma
[5] = system: BT-549 breast
[6] = system: IGROV1 ovarian
[7] = system: SNB-19 CNS
[8] = system: NCI-H460 lung
[9] = system: SN12C renal
[10] = system: T-47D breast
[11] = system: COLO 205 colon
[12] = system: NCI/ADR-RES ovarian
[13] = system: HCT-116 colon
[14] = system: RPMI-8226 leukemia
[15] = system: UACC-62 melanoma
[16] = system: NCI-H23 lung
[17] = system: SNB-75 CNS
[18] = system: TK-10 renal
[19] = system: SK-MEL-28 melanoma
[20] = system: HL-60(TB) leukemia
[21] = system: ACHN renal
[22] = system: SK-MEL-2 melanoma
[23] = system: U251 CNS
[24] = system: SK-MEL-5 melanoma
[25] = system: EKVX NSCLC
[26] = system: HS 578T breast
[27] = system: NCI-H226 lung
[28] = system: RXF 393 renal
[29] = system: MDA-MB-231 breast
[30] = system: OVCAR-8 ovarian
[31] = system: MDA-MB-435
[32] = system: HT29 colon
[33] = system: KM12 colon
[34] = system: UACC-257 melanoma
[35] = system: A549 NSCLC
[36] = system: DU-145 prostate
[37] = system: LOX IMVI melanoma
[38] = system: HOP-92 NSCLC
[39] = system: CAKI-1 renal
[40] = system: CCRF-CEM leukemia
[41] = system: MOLT-4 leukemia
[42] = system: OVCAR-3 ovarian
[43] = system: SF-268 CNS
[44] = system: HCT-15 colon
[45] = system: UO-31 renal
[46] = system: 786-0 renal
[47] = system: PC-3 prostate
[48] = system: HCC-2998 colon
[49] = system: MDA-N
[50] = system: SK-OV-3 ovarian
[51] = system: K-562 leukemia
[52] = system: SW-620 colon
[53] = system: M14 melanoma
[54] = system: OVCAR-4 ovarian
[55] = system: HOP-62 NSCLC

With COc1cc(OC)cc(-c2nc3ccccc3c(=O)[nH]2)c1 the TGI [1] was 82.2 µM, the TGI [2] was over 100 µM and the TGI [3] was over 100 µM. It also gave a TGI [4] of over 100 µM, a TGI [5] of over 100 µM and a TGI [6] of over 100 µM. The TGI [7] was over 100 µM, the TGI [8] was over 100 µM and the TGI [9] was over 100 µM. For the same molecule, the TGI [10] was over 100 µM, the TGI [11] was over 100 µM and the TGI [12] was over 100 µM. The TGI [13] was over 100 µM, the TGI [14] was over 100 µM and the TGI [15] was over 100 µM. The TGI [16] was over 100 µM, the TGI [17] was 58.3 µM and the TGI [18] was over 100 µM. It also gave a TGI [19] of over 100 µM, a TGI [20] of over 100 µM and a TGI [21] of over 100 µM. It also gave a TGI [22] of over 100 µM, a TGI [23] of over 100 µM and a TGI [24] of over 100 µM. It also gave a TGI [25] of over 100 µM, a TGI [26] of over 100 µM and a TGI [27] of over 100 µM. It also gave a TGI [28] of over 100 µM, a TGI [29] of over 100 µM and a TGI [30] of 63.8 µM. The TGI [31] was over 100 µM, the TGI [32] was over 100 µM and the TGI [33] was over 100 µM. The TGI [34] was over 100 µM, the TGI [35] was over 100 µM and the TGI [36] was over 100 µM. It also gave a TGI [37] of over 100 µM, a TGI [38] of over 100 µM and a TGI [39] of over 100 µM. For the same molecule, the TGI [40] was over 100 µM, the TGI [41] was over 100 µM and the TGI [42] was over 100 µM. The TGI [43] was over 100 µM, the TGI [44] was over 100 µM and the TGI [45] was over 100 µM. For the same molecule, the TGI [46] was 66.2 µM, the TGI [47] was over 100 µM and the TGI [48] was over 100 µM. The TGI [49] was over 100 µM, the TGI [50] was 62.8 µM and the TGI [51] was over 100 µM. The TGI [52] was over 100 µM, the TGI [53] was over 100 µM and the TGI [54] was over 100 µM. The TGI [55] was over 100 µM.
